Data on 5 compounds can be found in US8691753B2 (priority 2009, dated 2014).

What is called Ki is a measure of affinity in units of concentration, obtained from inhibition or displacement.

The target of one data set is MMP-10h (Homo sapiens (Human), UniProt P09238). The data set can be described thus: Inhibition constant (Ki) on MMP-10h. The data set is classed as biochemical. Particulars: for Ki: human MMP-10.
A further data set addresses MMP-9h (Homo sapiens (Human), UniProt P14780). The data set can be described thus: Inhibition constant (Ki) on MMP-9h. The data set is classed as biochemical. Particulars: for Ki: human MMP-9. A digest of the protocol: (§1)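 Protocol from prior literature applied; inhibition constants measured for human enzymes only.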
A further data set has as its target MMP-14h (Homo sapiens (Human), UniProt P50281). The data set can be described thus: Inhibition constant (Ki) on MMP-14h. The data set is classed as biochemical. The conditions noted are these: for Ki: human MMP-14. Summed up: as §1
The target of a further data set is MMP-3h (Homo sapiens (Human), UniProt P08254). Briefly: Inhibition constant (Ki) on MMP-3h. It is filed as biochemical. The conditions noted are these: for Ki: human MMP-3. Summed up: as §1
Sequence of MMP-3h (P08254 100-477): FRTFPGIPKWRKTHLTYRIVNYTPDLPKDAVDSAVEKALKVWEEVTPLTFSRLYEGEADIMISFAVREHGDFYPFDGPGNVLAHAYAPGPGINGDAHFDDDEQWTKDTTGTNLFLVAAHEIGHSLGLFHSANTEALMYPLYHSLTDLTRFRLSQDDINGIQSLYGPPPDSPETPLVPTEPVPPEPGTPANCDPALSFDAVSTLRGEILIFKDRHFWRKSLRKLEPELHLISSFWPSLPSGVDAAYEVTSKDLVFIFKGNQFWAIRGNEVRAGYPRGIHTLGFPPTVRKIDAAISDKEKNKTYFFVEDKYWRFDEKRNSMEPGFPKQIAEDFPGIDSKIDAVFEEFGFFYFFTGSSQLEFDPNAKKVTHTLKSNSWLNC
Another data set has as its target MMP-13h (Homo sapiens (Human), UniProt P45452). Briefly: Inhibition constant (Ki) on MMP-13h. The data set is classed as biochemical. The conditions noted are these: for Ki: human MMP-13. A digest of the protocol:
as §1

The next data set has as its target MMP-1h (Homo sapiens (Human), UniProt P03956). Briefly: Inhibition constant (Ki) on MMP-1h. The data set is classed as biochemical. Particulars: for Ki: human MMP-1. From the text: (§2) The inhibition constant Ki of these compounds has been determined according to the protocol described by Devel et al, 2006, J. Biol. Chem. (7).
(§3) In this table I and also in table II below, “h” corresponds to human. All of the compounds have therefore been evaluated on human MMPs.

For a further data set, the target named is MMP-2h (Homo sapiens (Human), UniProt P08253). Briefly: Inhibition constant (Ki) on MMP-2h. It is filed as biochemical. The conditions noted are these: for Ki: human MMP-2. A digest of the protocol: as §1
Sequence of MMP-2h (P08253 110-660): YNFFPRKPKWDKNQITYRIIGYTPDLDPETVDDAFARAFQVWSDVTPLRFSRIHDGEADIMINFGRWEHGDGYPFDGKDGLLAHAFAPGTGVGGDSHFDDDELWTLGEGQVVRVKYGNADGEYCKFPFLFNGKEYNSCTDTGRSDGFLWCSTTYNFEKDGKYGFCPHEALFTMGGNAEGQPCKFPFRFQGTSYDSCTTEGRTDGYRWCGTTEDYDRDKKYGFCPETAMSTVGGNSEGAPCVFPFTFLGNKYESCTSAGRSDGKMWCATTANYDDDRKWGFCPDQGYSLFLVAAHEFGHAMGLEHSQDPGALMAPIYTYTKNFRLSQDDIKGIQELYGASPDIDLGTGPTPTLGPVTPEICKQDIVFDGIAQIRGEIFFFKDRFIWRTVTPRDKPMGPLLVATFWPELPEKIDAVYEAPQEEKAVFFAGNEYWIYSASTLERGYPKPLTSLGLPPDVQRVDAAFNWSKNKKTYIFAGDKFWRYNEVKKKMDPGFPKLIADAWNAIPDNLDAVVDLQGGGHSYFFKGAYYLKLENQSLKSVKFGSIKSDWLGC
For another data set, the target named is MMP-8h (Homo sapiens (Human), UniProt P22894). The data set can be described thus: Inhibition constant (Ki) on MMP-8h. It is filed as biochemical. Particulars: for Ki: human MMP-8.
Sequence of MMP-8h (P22894 101-467): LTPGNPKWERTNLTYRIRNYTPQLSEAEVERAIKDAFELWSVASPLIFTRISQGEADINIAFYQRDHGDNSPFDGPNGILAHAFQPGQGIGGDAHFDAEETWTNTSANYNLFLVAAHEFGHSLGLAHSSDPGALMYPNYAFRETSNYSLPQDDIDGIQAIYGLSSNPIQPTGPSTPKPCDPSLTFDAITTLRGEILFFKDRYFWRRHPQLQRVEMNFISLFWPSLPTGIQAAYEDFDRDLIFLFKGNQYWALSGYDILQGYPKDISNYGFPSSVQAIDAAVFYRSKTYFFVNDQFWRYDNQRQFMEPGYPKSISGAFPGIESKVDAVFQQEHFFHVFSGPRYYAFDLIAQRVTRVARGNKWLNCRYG
A further data set addresses MMP-7h (Homo sapiens (Human), UniProt P09237). The data set can be described thus: Inhibition constant (Ki) on MMP-7h. It is filed as biochemical. The conditions noted are these: for Ki: human MMP-7.
Description: as §2, §3

Data set [1] can be described thus: Stability test in mouse blood. The data set is classed as in vitro ADME. Particulars: after 24 hours in mouse blood. As for the experimental part: The loss of 50% of the starting material can be attributed to a phenomenon of nonspecific association of the compound with the wall of the eppendorf. It should be noted that this 50% loss of the compound was also observed after 24 hours for a solution at 10 nM in PBS buffer or in a solution at 1 μM of PBS (Bovine Serum Albumin).

Data set [2] has as its target T1, MMP-12h (Homo sapiens (Human), UniProt P39900). The conditions noted are these: reported by Devel et al., J. Biol. Chem. 2006; read-out: inhibition constant Ki for human MMP-12; cited from earlier work.
Data set [3] concerns human MMPs. The conditions noted are these: reported by Devel et al., J. Biol. Chem. 2006; cited from earlier work.
Data set [4] addresses T1, MMP-12h. The data set can be described thus: Inhibition constant (Ki) on MMP-12h. The data set is classed as biochemical. The conditions noted are these: for Ki: read-out: Ki MMP-12h, human MMP-12.
The test system of data set [5] is human MMPs. Briefly: Inhibition of the panel of human MMPs (overall statements, selectivity). It is filed as biochemical. The conditions noted are these: other human MMPs versus MMP-12.
A short description of data set [6]: Determination of the plasma concentration in mice after infusion. The conditions noted are these: mouse, intravenous, 10 mg/kg.

Where two headings read alike, the source gives them in different places. A value given as a limit tells only on which side of the number the result lay.

Sequence of MMP-1h (P03956 100-469): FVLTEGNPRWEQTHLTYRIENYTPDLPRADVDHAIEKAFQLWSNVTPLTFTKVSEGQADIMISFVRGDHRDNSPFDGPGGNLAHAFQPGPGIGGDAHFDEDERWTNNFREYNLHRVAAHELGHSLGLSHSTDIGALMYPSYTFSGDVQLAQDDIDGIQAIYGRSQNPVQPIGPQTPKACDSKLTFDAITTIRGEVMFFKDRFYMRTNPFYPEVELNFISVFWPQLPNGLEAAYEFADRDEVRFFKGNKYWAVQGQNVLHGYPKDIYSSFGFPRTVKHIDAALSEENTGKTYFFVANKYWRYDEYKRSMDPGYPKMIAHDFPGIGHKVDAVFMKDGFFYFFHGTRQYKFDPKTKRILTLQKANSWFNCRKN
Sequence of MMP-7h (P09237 95-267): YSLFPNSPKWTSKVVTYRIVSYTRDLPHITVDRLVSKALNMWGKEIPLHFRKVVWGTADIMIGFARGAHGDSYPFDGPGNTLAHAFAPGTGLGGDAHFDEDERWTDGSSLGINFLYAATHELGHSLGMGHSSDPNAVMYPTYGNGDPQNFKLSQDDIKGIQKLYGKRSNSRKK
Sequence of MMP-10h (P09238 99-476): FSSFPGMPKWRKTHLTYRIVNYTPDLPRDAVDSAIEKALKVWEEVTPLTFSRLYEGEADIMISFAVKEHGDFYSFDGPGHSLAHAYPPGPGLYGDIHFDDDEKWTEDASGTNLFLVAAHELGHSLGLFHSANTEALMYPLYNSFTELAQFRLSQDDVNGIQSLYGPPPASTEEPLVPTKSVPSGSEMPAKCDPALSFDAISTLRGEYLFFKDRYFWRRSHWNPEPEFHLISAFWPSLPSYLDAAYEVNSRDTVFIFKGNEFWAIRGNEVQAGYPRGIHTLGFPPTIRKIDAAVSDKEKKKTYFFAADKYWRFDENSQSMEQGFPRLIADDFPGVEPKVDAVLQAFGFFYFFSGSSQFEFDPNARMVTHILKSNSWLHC
T1 sequence (P39900 106-470): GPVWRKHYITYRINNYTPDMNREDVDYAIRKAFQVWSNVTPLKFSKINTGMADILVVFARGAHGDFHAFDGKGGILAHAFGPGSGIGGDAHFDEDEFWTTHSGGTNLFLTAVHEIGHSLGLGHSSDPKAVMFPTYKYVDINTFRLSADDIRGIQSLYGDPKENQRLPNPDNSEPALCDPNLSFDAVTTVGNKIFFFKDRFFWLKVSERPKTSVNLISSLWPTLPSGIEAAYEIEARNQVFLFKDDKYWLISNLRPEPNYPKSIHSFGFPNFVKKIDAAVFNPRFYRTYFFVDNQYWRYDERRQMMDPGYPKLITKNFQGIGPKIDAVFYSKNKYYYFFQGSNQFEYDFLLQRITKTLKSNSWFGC
Sequence of MMP-9h (P14780 94-707): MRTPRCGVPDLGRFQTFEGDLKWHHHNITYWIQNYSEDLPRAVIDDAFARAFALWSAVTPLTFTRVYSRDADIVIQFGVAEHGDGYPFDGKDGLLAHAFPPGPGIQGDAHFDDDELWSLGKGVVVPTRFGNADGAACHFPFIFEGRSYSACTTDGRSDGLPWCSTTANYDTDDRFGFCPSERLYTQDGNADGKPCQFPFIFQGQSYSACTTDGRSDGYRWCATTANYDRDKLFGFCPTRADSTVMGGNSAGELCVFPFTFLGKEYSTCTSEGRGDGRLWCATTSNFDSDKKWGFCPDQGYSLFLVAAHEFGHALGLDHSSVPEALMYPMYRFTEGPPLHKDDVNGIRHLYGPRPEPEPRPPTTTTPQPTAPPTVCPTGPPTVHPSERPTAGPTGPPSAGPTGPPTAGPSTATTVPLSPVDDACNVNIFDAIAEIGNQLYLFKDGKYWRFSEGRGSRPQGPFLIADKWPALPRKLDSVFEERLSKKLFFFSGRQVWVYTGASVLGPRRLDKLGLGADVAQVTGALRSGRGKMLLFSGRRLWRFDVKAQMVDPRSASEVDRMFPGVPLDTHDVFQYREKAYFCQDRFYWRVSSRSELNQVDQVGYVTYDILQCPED

On to `NC(=O)[C@H](CCC(=O)O)NC(=O)[C@H](CCC(=O)O)NC(=O)CCc1ccc(-c2ccccc2)cc1` [Compound 40, (S)-5-amino-4-((S)-2-(3-(biphenyl-4-yl)propanamido)-4-carboxybutanamido)-5-oxopentanoic acid], for which the Ki was above 1000 nM on MMP-10h; above 1000 nM on MMP-9h; above 5000 nM on MMP-14h; above 5000 nM on MMP-3h; 689 nM at MMP-13h; above 100000 nM on MMP-1h. Also, the Ki on MMP-2h is 445 nM; on MMP-8h, 226 nM; at MMP-7h, above 10000 nM. Moreover, in data set [1] (LC-MS and MS/MS), the “by-product resulting from the compound” value is “No by-product”. Also, the “amount detected in intact form” value in data set [1] (LC-MS, initial solution 10 nM) is reported as 50 fmol. In data set [1] (attributed to nonspecific association with the eppendorf wall), the “loss of the starting material” value came out at 50%.
Regarding `NC(=O)[C@H](CCC(=O)O)NC(=O)[C@H](CCC(=O)O)NC(=O)[C@H](Cc1cc(-c2ccc(-c3cccc(Cl)c3)cc2)no1)CP(=O)(O)c1ccc(Br)cc1` [RXP470, reference compound], the Ki on MMP-10h (read-out: Ki MMP-10h) was 8.3 nM; at MMP-12h [2] it was 0.4 nM; at MMP-9h (read-out: Ki MMP-9h), 850 nM; on MMP-14h (read-out: Ki MMP-14h), 80 nM; at MMP-3h (read-out: Ki MMP-3h), 58 nM; at MMP-13h (read-out: Ki MMP-13h), 13 nM. The Ki is 0.2 nM at MMP-12h [4], 72 nM on MMP-2h (read-out: Ki MMP-2h) and 77 nM at MMP-8h (read-out: Ki MMP-8h). The “potency toward MMPs 1, 2, 3, 7, 8, 9, 11, 13 and 14 compared with MMP-12” value in the data set with human MMPs [3] is listed as “two to three orders of magnitude less powerful”.
With `NC(=O)[C@H](CCC(=O)O)NC(=O)[C@H](CCC(=O)O)NC(=O)[C@@H](CC(=O)O)Cc1ccc(-c2cc(-c3ccccc3)cs2)cc1` [95 bis, (S)-5-amino-4-((S)-4-carboxy-2-((R)-3-carboxy-2-(4-(4-phenylthiophen-2-yl)benzyl)propanamido)butanamido)-5-oxopentanoic acid], at MMP-10h (Ki MMP-10h/Ki MMP-12), the “Selectivity factor/MMP12, MMP-10h” value was 270. Besides, the Ki at MMP-10h (read-out: Ki MMP-10h) is 80 nM; at MMP-9h (read-out: Ki MMP-9h), above 1000 nM; on MMP-14h (read-out: Ki MMP-14h), 118 nM; at MMP-3h (read-out: Ki MMP-3h) it was 579 nM; at MMP-13h (read-out: Ki MMP-13h), 198 nM; at MMP-12h [4], 0.3 nM. In addition, the Ki at MMP-1h (read-out: Ki MMP-1h) was above 1000 nM; at MMP-2h (read-out: Ki MMP-2h), 401 nM; at MMP-8h (read-out: Ki MMP-8h), 520 nM; on MMP-7h (read-out: Ki MMP-7h), above 1000 nM. Besides, at MMP-9h (Ki MMP-9h/Ki MMP-12), the “Selectivity factor/MMP12, MMP-9h” value is on record as 3333. Also, the “selectivity factor F = Ki MMP-x/Ki MMP-12” value in the data set with human MMPs [5] is reported as above 100. Also, at MMP-14h (Ki MMP-14h/Ki MMP-12), the “Selectivity factor/MMP12, MMP-14h” value is listed as 395. The “Selectivity factor/MMP12, MMP-3h” value at MMP-3h (Ki MMP-3h/Ki MMP-12) was determined as 1930. For the same compound, the “Selectivity factor/MMP12, MMP-13h” value on MMP-13h (Ki MMP-13h/Ki MMP-12) was 660. Further, the “improvement of affinity with respect to MMP-12 compared with compound 95 (factor)” value on MMP-12h [4] turned out to be 6. For the same compound, the “Selectivity factor/MMP12, MMP-12h” value at MMP-12h [4] (Ki MMP-12h/Ki MMP-12) was 1. Besides, the “Selectivity factor/MMP12, MMP-1h” value on MMP-1h (Ki MMP-1h/Ki MMP-12) worked out at 3333. Also, at MMP-2h (Ki MMP-2h/Ki MMP-12), the “Selectivity factor/MMP12, MMP-2h” value amounted to 1340. Besides, the “Selectivity factor/MMP12, MMP-8h” value at MMP-8h (Ki MMP-8h/Ki MMP-12) stood at 1730. Also, the “Selectivity factor/MMP12, MMP-7h” value at MMP-7h (Ki MMP-7h/Ki MMP-12) is reported as 3333.
Regarding `NC(=O)[C@H](CC(=O)O)NC(=O)[C@H](CCC(=O)O)NC(=O)CCc1ccc(-c2cc(-c3ccccc3)cs2)cc1` [Compound 101, (S)-5-((S)-1-amino-3-carboxy-1-oxopropan-2-ylamino)-5-oxo-4-(3-(4-(4-phenylthiophen-2-yl)phenyl)propanamido)pentanoic acid], the inhibitory constant (Ki) is 571 nM on MMP-10h (read-out: Ki MMP-10h); above 5000 nM at MMP-9h (read-out: Ki MMP-9h); above 1000 nM on MMP-14h (read-out: Ki MMP-14h); above 5000 nM on MMP-3h (read-out: Ki MMP-3h); 933 nM on MMP-13h (read-out: Ki MMP-13h); 2.56 nM on MMP-12h [4]. For the same compound, the Ki was above 100000 nM on MMP-1h (read-out: Ki MMP-1h), above 1000 nM on MMP-2h (read-out: Ki MMP-2h), 379 nM on MMP-8h (read-out: Ki MMP-8h) and above 100000 nM at MMP-7h (read-out: Ki MMP-7h). In addition, the “selectivity factor F = Ki MMP-x/Ki MMP-12” value in the data set on human MMPs [5] is reported as above 100.
Take `Cc1ccc(-c2ccc(CCC(=O)N[C@@H](CCC(=O)O)C(=O)N[C@@H](CCC(=O)O)C(N)=O)cc2)s1` [Compound 91, (S)-5-amino-4-((S)-4-carboxy-2-(3-(4-(5-methylthiophen-2-yl)phenyl)propanamido)butanamido)-5-oxopentanoic acid]: the Ki on MMP-10h (read-out: Ki MMP-10h) is 353 nM; at MMP-9h (read-out: Ki MMP-9h) it was 242 nM; on MMP-14h (read-out: Ki MMP-14h), above 1000 nM; at MMP-3h (read-out: Ki MMP-3h), above 1000 nM; on MMP-13h (read-out: Ki MMP-13h) it was 564 nM; at MMP-12h [4], 1.84 nM. The values for the Ki on MMP-2h (read-out: Ki MMP-2h) and on MMP-8h (read-out: Ki MMP-8h) were 97 nM and 10.3 nM, respectively. The same compound registered a concentration at 5 min in data set [6] of 1000 nM.
